Source: ChEMBL document CHEMBL5550125, “Molecular basis of N-glycan recognition by pradimicin a and its potential as a SARS-CoV-2 entry inhibitor” (Bioorg Med Chem, 2024)
Calls of active or inactive are those of the source. The rule behind the calls is not given here.

How the values were obtained:
[1] = Binding affinity to Pradimicin A assessed as suppression of pradimicin A induced growth inhibition of Candida rugosa AJ14513 by measuring minimum antagonistic concentration measured after 48 hrs by visual analysis
[2] = Induction of Pradimicin-FA1 aggregation assessed as concentration required to induce 50% aggregation incubated for 15 mins and further incubated for 30 mins at room temperature by RP-HPLC analysis
[3] = Binding affinity to Pradimicin A assessed as pradimicin A/Ca2+/compound ternary complex formation by measuring molar ratio at 50 umol incubated at 60 degreeC for 15 mins and room temperature for 1 hr in presence of CaCl2 and further incubated at 4 degreeC for 1 hr by coprecipitation based 1H-NMR analysis; conditions: dose 50.0 µmol, time 2.25 hrs
Diutina rugosa = assay: Antifungal activity against Candida rugosa AJ14513 assessed as inhibition of fungal growth at 32 ug/ml measured after 48 hrs by visual analysis relative to control; type: functional
SARS-CoV-2 [4] = assay: Antiviral activity against SARS-CoV-2 JPN/NGS/SC-1/2020 infected in human Calu-3 cells assessed as inhibition of viral infection pretreated with cells for 1 hr followed by viral infection and measured after 3 days by immunofluorescence analysis; type: functional, organism-based; conditions: Severe acute respiratory syndrome coronavirus 2, JPN/NGS/SC-1/2020, Calu-3
Calu-3 = assay: Cytotoxicity against human Calu-3 cells infected with SARS-CoV-2 JPN/NGS/SC-1/2020 assessed as reduction in cell viability at 0.3 to 100 uM pretreated with cells for 1 hr followed by viral infection and measured after 3 days; type: toxicity, cell-based; conditions: calu-3, 73 h, dose 0.3-100 µM
SARS-CoV-2 [5] = assay: Antiviral activity against SARS-CoV-2 JPN/NGS/SC-1/2020 infected in human Calu-3 cells assessed as inhibition of viral infection at 6.25 uM pretreated with cells for 1 hr followed by viral infection and measured after 3 days by immunofluorescence analysis relative to control; type: functional, Severe acute respiratory syndrome coronavirus 2; design: scale not given: the % may be the effect or the level left; conditions: time 73 hrs
SARS-CoV-2 [6] = assay: Antiviral activity against SARS-CoV-2 JPN/NGS/SC-1/2020 infected in human Calu-3 cells assessed as inhibition of viral infection at 6.25 uM pretreated with cells for 1 hr in presence of (2S,3S,4S,5R,6R)-4-(((2S,3R,4S,5S,6R)-3,4,5-trihydroxy-6-(hydroxymethyl)tetrahydro-2H-pyran-2-yl)oxy)-6-((((2S,3S,4S,5S,6R)-3,4,5-trihydroxy-6-(hydroxymethyl)tetrahydro-2H-pyran-2-yl)oxy)methyl)tetrahydro-2H-pyran-2,3,5-triol followed by viral infection and measured after 3 days by immunofluorescence analysis; type: functional, organism-based; conditions: Severe acute respiratory syndrome coronavirus 2, time 73.0 hrs

| SMILES | MAC [1] [mM] | AC50 [2] [mM] | other results |
| --- | --- | --- | --- |
| OC[C@H]1O[C@H](OC[C@H]2O[C@H](O)[C@@H](O)[C@@H](O[C@@H]3O[C@H](CO)[C@@H](O)[C@H](O)[C@H]3O)[C@@H]2O)[C@@H](O)[C@@H](O)[C@@H]1O | 1 | 0.06 | Ratio [3]: 0.52 |
| CO[C@H]1O[C@H](CO)[C@@H](O)[C@H](O)[C@@H]1O | 16 | 5 | Ratio [3]: 0.96 |
| CO[C@H]1O[C@H](CO)[C@@H](O[C@@H]2O[C@H](CO)[C@H](O)[C@H](O)[C@H]2O)[C@H](O)[C@@H]1NC(C)=O | > 64 | > 10 | – |
| CO[C@H]1O[C@H](CO[C@H]2O[C@H](CO)[C@@H](O)[C@H](O)[C@@H]2O)[C@@H](O)[C@H](O[C@@H]2O[C@H](CO)[C@@H](O)[C@H](O)[C@H]2O)[C@@H]1O | 16 | > 10 | – |
| CO[C@H]1O[C@H](CO)[C@@H](O[C@@H]2O[C@H](CO)[C@H](OC)[C@H](O)[C@H]2NC(C)=O)[C@H](O)[C@@H]1NC(C)=O | > 64 | > 10 | – |
| CO[C@H]1O[C@H](CO[C@H]2O[C@H](CO)[C@@H](O)[C@H](O)[C@@H]2OC)[C@@H](O)[C@H](O[C@@H]2O[C@H](CO)[C@@H](O)[C@H](O)[C@H]2OC)[C@@H]1O | > 64 | > 10 | – |
| CO[C@H]1O[C@H](CO)[C@@H](O)[C@H](O)[C@H]1O | – | – | Ratio [3]: 0.05 |
| CO[C@H]1O[C@H](CO[C@H]2O[C@H](CO)[C@@H](O)[C@H](O)[C@H]2O)[C@@H](O)[C@H](O[C@@H]2O[C@H](CO)[C@@H](O)[C@H](O)[C@H]2O)[C@@H]1O | 16 | > 10 | – |
| CO[C@@H]1O[C@H](CO[C@]2(C(=O)O)C[C@H](O)[C@@H](NC(C)=O)[C@H]([C@@H](O)[C@H](O)CO)O2)[C@H](O)[C@H](O)[C@H]1O | > 64 | > 10 | – |
| CO[C@H]1O[C@H](CO)[C@@H](O)[C@H](O)[C@@H]1O[C@H]1O[C@H](CO)[C@@H](O)[C@H](O)[C@@H]1O | 16 | > 10 | – |
| CO[C@H]1O[C@H](CO)[C@@H](O)[C@H](O)[C@@H]1O[C@@H]1O[C@H](CO)[C@@H](OC)[C@H](O)[C@@H]1NC(C)=O | > 64 | > 10 | – |
| CN[C@@H]1[C@H](O[C@@H]2OC[C@@H](O)[C@H](O)[C@H]2O)[C@@H](O)[C@H](O[C@H]2c3cc(C)c(C(=O)N[C@H](C)C(=O)O)c(O)c3-c3c(cc4c(c3O)C(=O)c3cc(OC)cc(O)c3C4=O)[C@@H]2O)O[C@@H]1C [PRADIMICIN A] | – | – | inhibition at 32 µg/mL (Diutina rugosa): 100%; IC50 (SARS-CoV-2 [4]): 0.0012 mM; Activity (Calu-3): Non-Toxic; Activity (SARS-CoV-2 [5]): ~100%; Activity (SARS-CoV-2 [6]): inactive |
| CO[C@H]1O[C@H](CO)[C@@H](O)[C@H](O)[C@@H]1O[C@@H]1O[C@H](CO)[C@@H](O)[C@H](O)[C@@H]1NC(C)=O | > 64 | > 10 | – |
| CO[C@H]1O[C@H](CO[C@H]2O[C@H](CO)[C@@H](O)[C@H](O)[C@@H]2O[C@H]2O[C@H](CO)[C@@H](O)[C@H](O)[C@@H]2O)[C@@H](O)[C@H](O[C@H]2O[C@H](CO)[C@H](O)[C@@H](O)[C@@H]2O[C@@H]2O[C@H](CO)[C@@H](O)[C@H](O)[C@H]2O)[C@@H]1O | 1 | 0.07 | – |
